According to PMC3282081, “A Modular Strategy to Prepare Multivalent Inhibitors of Prostate-Specific Membrane Antigen (PSMA)” (Oncotarget, 2011):
“And” between values parts separate entries of the source, which are not always exact repeats. Identical values can stand only once. Like-named read-outs stand apart in the source and are kept apart here.

How the values were obtained:
PSMA [1] = biological target: T1, PSMA (Homo sapiens, UniProt Q04609); assay: fluorescence-based PSMA inhibition assay (NAAG hydrolysis, Amplex Red); assay type: biochemical; details: for Ki: LNCaP cell lysates, 4 μM NAAG, Cheng-Prusoff conversion; for increase in binding affinity (Ki) compared to monovalent 1: relative to compound 1
T1 construct: endogenous in cells; host or cells: LNCaP cell lysate
Procedure: PSMA inhibition constant (Ki) values for 1 - 3 were determined using a fluorescence-based PSMA inhibition assay. […] Compound 6 was radiolabeled with ^99mTc and its biological properties were tested in vivo [34].
The PSMA inhibitory activities of 1 - 3 and [^113/115In]3 were determined using a fluorescence-based assay according to a previously reported procedure. Briefly, lysates of LNCaP cell extracts (25 μL) were incubated with the inhibitor (12.5 μL) in the presence of 4 μM NAAG (12.5 μL) for 120 min. The amount of glutamate released upon hydrolysis of NAAG was measured by incubating with a working solution (50 μL) of the Amplex Red Glutamic Acid Kit (Life Technologies, Grand Island, NY) for 60 min. Fluorescence was measured with a VICTOR3V multilabel plate reader (Perkin Elmer Inc., Waltham, MA) with excitation at 530 nm and emission at 560 nm. […] Assays were performed in triplicate. Enzyme inhibitory constants (Ki values) were generated using the Cheng-Prusoff conversion. Data analysis was performed using GraphPad Prism version 4.00 for Windows (GraphPad Software, San Diego, CA).

PSMA [2] = biological target: T1, PSMA; parameters: method as in earlier work; details: separate previous experiment; cited from earlier work

T1 sequence (Q04609 whole entry): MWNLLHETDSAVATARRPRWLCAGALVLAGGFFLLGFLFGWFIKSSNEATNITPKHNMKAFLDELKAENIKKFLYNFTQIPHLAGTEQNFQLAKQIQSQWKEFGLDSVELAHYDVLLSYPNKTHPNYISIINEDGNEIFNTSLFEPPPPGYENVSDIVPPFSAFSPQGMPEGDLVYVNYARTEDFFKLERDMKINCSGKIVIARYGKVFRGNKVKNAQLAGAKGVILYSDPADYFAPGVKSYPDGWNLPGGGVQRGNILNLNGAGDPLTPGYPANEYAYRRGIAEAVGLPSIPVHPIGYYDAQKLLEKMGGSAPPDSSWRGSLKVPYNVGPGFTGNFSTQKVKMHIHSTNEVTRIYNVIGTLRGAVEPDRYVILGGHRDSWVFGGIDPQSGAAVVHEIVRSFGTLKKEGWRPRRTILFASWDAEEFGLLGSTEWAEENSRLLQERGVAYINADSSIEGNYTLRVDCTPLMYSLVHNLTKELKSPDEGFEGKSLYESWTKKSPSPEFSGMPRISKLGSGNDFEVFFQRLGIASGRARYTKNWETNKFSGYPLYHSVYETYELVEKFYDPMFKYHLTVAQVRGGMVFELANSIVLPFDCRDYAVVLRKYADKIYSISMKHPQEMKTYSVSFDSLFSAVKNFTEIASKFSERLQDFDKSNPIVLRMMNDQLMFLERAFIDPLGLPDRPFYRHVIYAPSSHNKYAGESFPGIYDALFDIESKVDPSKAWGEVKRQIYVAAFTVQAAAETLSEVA

For [N-]=[N+]=NCCCCC(NC(=O)CCCCCCC(=O)NCCCC[C@H](NC(=O)N[C@@H](CCC(=O)O)C(=O)O)C(=O)O)C(=O)O (stereo partly drawn) [Compound 1, (3S,7S)-26-Azido-5,13,20-trioxo-4,6,12,21-tetraazahexacosane-1,3,7,22-tetracarboxylic acid], the Ki (PSMA [1]) was 0.9 nM and 0.91 nM.
With NCCCCC(NC(=O)C(CCCCNC(=O)c1cn(CCCCC(NC(=O)CCCCCCC(=O)NCCCC[C@H](NC(=O)N[C@@H](CCC(=O)O)C(=O)O)C(=O)O)C(=O)O)nn1)NC(=O)c1cn(CCCCC(NC(=O)CCCCCCC(=O)NCCCC[C@H](NC(=O)N[C@@H](CCC(=O)O)C(=O)O)C(=O)O)C(=O)O)nn1)C(=O)O (stereo partly drawn) [Compound 2] the Ki (PSMA [1]) was 0.1 nM and the “increase in binding affinity (Ki) compared to monovalent 1” value (PSMA [1]) was 5 fold and ~ 5 fold.
With O=C(O)CC[C@H](NC(=O)N[C@@H](CCCCNC(=O)CCCCCCC(=O)NC(CCCCn1cc(C(=O)NCCCCC(NC(=O)c2cn(CCCCC(NC(=O)CCCCCCC(=O)NCCCC[C@H](NC(=O)N[C@@H](CCC(=O)O)C(=O)O)C(=O)O)C(=O)O)nn2)C(=O)NC(CCCCNC(=O)CN2CCN(CC(=O)O)CCN(CC(=O)O)CCN(CC(=O)O)CC2)C(=O)O)nn1)C(=O)O)C(=O)O)C(=O)O (stereo partly drawn) [Compound 3] the Ki (PSMA [1]) was 0.08 nM and the “increase in binding affinity (Ki) compared to monovalent 1” value (PSMA [1]) was 11 fold and ~ 11 fold.
For NC(Cc1cn(CCCCC(NC(=O)CCCCCCC(=O)NCCCC[C@H](NC(=O)N[C@@H](CCC(=O)O)C(=O)O)C(=O)O)C(=O)O)nn1)C(=O)O (stereo partly drawn) [Compound 6], the Ki (PSMA [2]) is given as 0.92 nM.
